Source: patent US12351570B2 (MERCK PATENT GMBH, priority 2018, dated 2025)

System: MDA-MB-231 cells
Test: Extracellular lactate production inhibition after 4 h, MDA-MB-231
Details: Homo sapiens, MDA-MB-231

SMILES	IC50
CSc1nccc(-c2ccc(S(=O)(=O)Nc3ccccc3C#Cc3ccc(C(=O)O)cc3)s2)n1 [Compound 282, 4-[2-(2-{5-[2-(methylsulfanyl)pyrimidin-4-yl]thiophene-2-sulfonamido}phenyl)-ethynyl]benzoic acid]	1000 to 100000 nM
O=C(O)c1ccc(C#Cc2ccccc2NS(=O)(=O)c2cccc3nccnc23)cc1 [Compound 66, 4-{2-[2-(quinoxaline-5-sulfonamido)phenyl]ethynyl}benzoic acid]	1000 to 100000 nM
O=C(O)c1ccc(C#Cc2ccccc2NS(=O)(=O)c2c(F)ccc3c(Cl)ccnc23)cn1 [Compound 320, 5-{2-[2-(4-chloro-7-fluoroquinoline-8-sulfonamido)phenyl]ethynyl}pyridine-2-carboxylic acid]	10 to 100 nM
COc1cc(-c2ccccc2)ccc1CN(C=O)c1ccccc1C#Cc1ccc(C(=O)O)nc1 [Compound 213, 5-(2-{2-[N-({3-methoxy-[1,1′-biphenyl]-4-yl}methyl)formamido]phenyl}-ethynyl)pyridine-2-carboxylic acid]	10 to 100 nM
Cc1ccc2cccnc2c1S(=O)(=O)Nc1ccccc1C#Cc1cnc(C(=O)O)cc1-c1ccccc1 [Compound 226, 5-{2-[2-(7-methylquinoline-8-sulfonamido)phenyl]ethynyl}-4-phenylpyridine-2-carboxylic acid]	10 to 100 nM
Cc1cc(C#Cc2ccccc2NS(=O)(=O)c2cccc3ccccc23)ccc1C(=O)O [Compound 80, 2-methyl-4-{2-[2-(naphthalene-1-sulfonamido)phenyl]ethynyl}benzoic acid]	100 to 1000 nM
Cc1ccccc1-c1ccc(S(=O)(=O)Nc2ccccc2C#Cc2ccc(C(=O)O)nc2)cc1 [Compound 293, 5-[2-(2-{2′-methyl-[1,1′-biphenyl]-4-sulfonamido}phenyl)ethynyl]pyridine-2-carboxylic acid]	100 to 1000 nM
CNc1cc(C#Cc2cc(Cl)ccc2NS(=O)(=O)c2ccc(OC)c3cccnc23)cnc1C(=O)O [Compound 242, 5-{2-[5-chloro-2-(5-methoxyquinoline-8-sulfonamido)phenyl]ethynyl}-3-(methyl-amino)pyridine-2-carboxylic acid]	1 to 10 nM
Cc1cc(C#Cc2ccccc2N(C=O)Cc2ccc3ccccc3c2)cnc1C(=O)O [Compound 195, 3-methyl-5-[2-(2-{N-[(naphthalen-2-yl)methyl]formamido}phenyl)ethynyl]-pyridine-2-carboxylic acid]	100 to 1000 nM
Cc1cc(C#Cc2cc(F)ccc2NS(=O)(=O)c2c(C)ccc3cccnc23)cnc1C(=O)O [Compound 307, 5-{2-[5-fluoro-2-(7-methylquinoline-8-sulfonamido)phenyl]ethynyl}-3-methylpyridine-2-carboxylic acid]	10 to 100 nM
COc1ccc(S(=O)(=O)Nc2ccc(Br)cc2C#Cc2cnc(C(=O)O)c3ccccc23)c2ncccc12 [Compound 235, 4-{2-[5-bromo-2-(5-methoxyquinoline-8-sulfonamido)phenyl]ethynyl}isoquinoline-1-carboxylic acid]	1 to 10 nM
COc1ccc(S(=O)(=O)Nc2ccccc2C#Cc2ccc(C(=O)O)cc2)c2ccccc12 [Compound 8, 4-{2-[2-(4-methoxynaphthalene-1-sulfonamido)phenyl]ethynyl}benzoic acid]	100 to 1000 nM
CCNc1cc(C#Cc2ccccc2NS(=O)(=O)c2cccc3cccnc23)cnc1C(=O)O [Compound 394, 3-(ethylamino)-5-{2-[2-(quinoline-8-sulfonamido)phenyl]ethynyl}pyridine-2-carboxylic acid]	1 to 10 nM
CCc1ccc2cccnc2c1S(=O)(=O)Nc1ccccc1C#Cc1ccc(C(=O)O)nc1 [Compound 342, 5-{2-[2-(7-ethylquinoline-8-sulfonamido)phenyl]ethynyl}pyridine-2-carboxylic acid]	1 to 10 nM
CCc1cc(C#Cc2ccccc2NS(=O)(=O)c2cccc3cccnc23)cnc1C(=O)O [Compound 345, 3-Ethyl-5-[2-(quinoline-8-sulfonylamino)-phenylethynyl]-pyridine-2-carboxylic acid]	10 to 100 nM
COc1ccc(S(=O)(=O)Nc2ccccc2C#Cc2ccc(C(=O)OCc3ccccc3)nc2)c2ncccc12 [Compound 172, benzyl 5-{2-[2-(5-methoxyquinoline-8-sulfonamido)phenyl]ethynyl}pyridine-2-carboxylate]	10 to 100 nM
O=C(O)c1ccc(C#Cc2cc(F)ccc2NS(=O)(=O)c2ccc3ccccc3c2)cc1 [Compound 15, 4-{2-[5-fluoro-2-(naphthalene-2-sulfonamido)phenyl]ethynyl}benzoic acid]	100 to 1000 nM
Cc1ccc(S(=O)(=O)Nc2ccccc2C#Cc2ccc(C(=O)O)cc2)c2ccccc12 [Compound 75, 4-{2-[2-(4-methylnaphthalene-1-sulfonamido)phenyl]ethynyl}benzoic acid]	100 to 1000 nM
Cc1cc(C#Cc2ccccc2NS(=O)(=O)c2cccc3ccccc23)cnc1C(=O)O [Compound 74, 3-methyl-5-{2-[2-(naphthalene-1-sulfonamido)phenyl]ethynyl}pyridine-2-carboxylic acid]	100 to 1000 nM
O=CN(Cc1ccccc1C#Cc1ccc(C(=O)O)nc1)c1ccc2ccccc2c1 [Compound 202, 5-[2-(2-{[N-(naphthalen-2-yl)formamido]methyl}phenyl)-ethynyl]pyridine-2-carboxylic acid]	10 to 100 nM

SMILES	IC50
COC(=O)c1ccc(C#Cc2ccccc2NS(=O)(=O)c2cnn(-c3ccccc3)c2)cn1 [Compound 136, methyl 5-{2-[2-(1-phenyl-1H-pyrazole-4-sulfonamido)phenyl]ethynyl}pyridine-2-carboxylate]	1000 to 100000 nM
Cc1ccc2cccnc2c1S(=O)(=O)Nc1ccccc1C#Cc1cnc(C(=O)O)cc1Cl [Compound 149, 4-chloro-5-{2-[2-(7-methylquinoline-8-sulfonamido)phenyl]ethynyl}pyridine-2-carboxylic acid]	10 to 100 nM
CS(=O)(=O)N(Cc1ccc2ccccc2n1)c1ccccc1C#Cc1ccc(C(=O)O)nc1 [Compound 120, 5-[2-(2-{N-[(quinolin-2-yl)methyl]methanesulfonamido}phenyl)ethynyl]pyridine-2-carboxylic acid]	1000 to 100000 nM
Cc1cc(S(=O)(=O)Nc2ccccc2C#Cc2cnc(C(=O)O)c(Cl)c2)c2ncccc2c1 [Compound 335, 3-chloro-5-{2-[2-(6-methylquinoline-8-sulfonamido)phenyl]ethynyl}pyridine-2-carboxylic acid]	1000 to 100000 nM
O=C(O)c1ccc(C#Cc2ccccc2NS(=O)(=O)C2CS(=O)(=O)c3ccccc32)cc1 (stereo not drawn) [Compound 76, 4-{2-[2-(1,1-dioxo-2,3-dihydro-1lambda6-benzo[b]thiophene-3-sulfonamido)phenyl]ethynyl}benzoic acid]	1000 to 100000 nM
O=CN(Cc1ccc2ccccc2c1)c1ccccc1C#Cc1ccc(C(=O)O)nc1 [Compound 115, 5-[2-(2-{N-[(naphthalen-2-yl)methyl]formamido}phenyl)ethynyl]-pyridine-2-carboxylic acid]	100 to 1000 nM
CCOC(=O)c1ccc(C#Cc2ccccc2NS(=O)(=O)c2ccc(OC)c3cccnc23)cn1 [Compound 165, ethyl 5-{2-[2-(5-methoxyquinoline-8-sulfonamido)phenyl]ethynyl}pyridine-2-carboxylate]	10 to 100 nM
O=C(O)c1ccc(C#Cc2ccccc2NS(=O)(=O)c2cccc3cccnc23)cn1 [Compound 52, 5-{2-[2-(quinoline-8-sulfonamido)phenyl]ethynyl}pyridine-2-carboxylic acid]	100 to 1000 nM
COCCOC(=O)c1cc(OC)c(C#Cc2ccccc2NS(=O)(=O)c2ccc(OC)c3cccnc23)cn1 [Compound 405, 2-methoxyethyl 4-methoxy-5-{2-[2-(5-methoxyquinoline-8-sulfonamido)phenyl]ethynyl}pyridine-2-carboxylate]	100 to 1000 nM
COc1ccc(S(=O)(=O)Nc2ccc(Cl)cc2C#Cc2ccc(C(=O)O)nc2)c2ncccc12 [Compound 359, 5-{2-[5-chloro-2-(5-methoxyquinoline-8-sulfonamido)phenyl]ethynyl}pyridine-2-carboxylic acid]	1 to 10 nM
COc1cc(C(=O)O)ncc1C#Cc1cc(Br)c(F)cc1NS(=O)(=O)c1c(C)ccc2cccnc12 [Compound 353, 5-{2-[5-bromo-4-fluoro-2-(7-methylquinoline-8-sulfonamido)phenyl]ethynyl}-4-methoxypyridine-2-carboxylic acid]	10 to 100 nM
COc1cnc2cc(S(=O)(=O)Nc3ccccc3C#Cc3ccc(C(=O)O)nc3)ccc2n1 [Compound 91, 5-{2-[2-(2-methoxyquinoxaline-6-sulfonamido)phenyl]ethynyl}pyridine-2-carboxylic acid]	1000 to 100000 nM
COc1ccc(C#Cc2ccc(C(=O)O)cc2)c(NS(=O)(=O)c2ccc3ccccc3c2)c1 [Compound 19, 4-{2-[4-methoxy-2-(naphthalene-2-sulfonamido)phenyl]ethynyl}benzoic acid]	100 to 1000 nM
O=C(O)c1ccc(C#Cc2ccccc2NS(=O)(=O)c2cnc3ccccc3c2)cc1 [Compound 40, 4-{2-[2-(quinoline-3-sulfonamido)phenyl]ethynyl}benzoic acid]	1000 to 100000 nM
O=C(O)c1ccc(C#Cc2ccccc2NS(=O)(=O)C2Cc3ccccc3C2)cc1 [Compound 93, 4-{2-[2-(2,3-dihydro-1H-indene-2-sulfonamido)phenyl]ethynyl}benzoic acid]	1000 to 100000 nM
CCOc1ccc(S(=O)(=O)Nc2ccccc2C#Cc2ccc(C(=O)O)nc2)c2ccccc12 [Compound 284, 5-{2-[2-(4-ethoxynaphthalene-1-sulfonamido)phenyl]ethynyl}pyridine-2-carboxylic acid]	10 to 100 nM
Cc1c(C)c(S(=O)(=O)Nc2ccccc2C#Cc2ccc(C(=O)O)nc2)c2ncccc2c1C [Compound 305, 5-{2-[2-(5,6,7-trimethylquinoline-8-sulfonamido)phenyl]ethynyl}pyridine-2-carboxylic acid]	10 to 100 nM
O=C(O)c1ccc(C#Cc2ccccc2NS(=O)(=O)c2ccc3ncccc3c2)cc1 [Compound 55, 4-{2-[2-(quinoline-6-sulfonamido)phenyl]ethynyl}benzoic acid]	1000 to 100000 nM
Cc1ccc2cccnc2c1S(=O)(=O)Nc1ccccc1C#Cc1ccc(C(=O)OCC(O)CO)nc1 (stereo not drawn) [Compound 396, 2,3-dihydroxypropyl 5-{2-[2-(7-methylquinoline-8-sulfonamido)phenyl]ethynyl}pyridine-2-carboxylate]	1 to 10 nM
